Experimental findings from US8258099B2, “Pin1-modulating compounds and methods of use thereof” (Max-Planck-Gesellschaft zur Foerderung der Wissenschaften …, priority 2004, dated 2012) are described below.

Where two headings read alike, the source gives them in different places. Square brackets hold non-standard residues; d marks the D form. Peptide text beside a SMILES is read from it. * marks the point of attachment. Biotin = O=C1N[C@H]2[C@H](CS[C@H]2CCCCC(=O)*)N1; pT = C[C@@H](OP(=O)(O)O)[C@H](N)C(=O)O; 2Nal = N[C@@H](Cc1ccc2ccccc2c1)C(=O)O; Bta = N[C@@H](Cc1csc2ccccc12)C(=O)O; Pip = O=C(O)[C@@H]1CCCCN1

Data set [1] can be described thus: Stability against cellular phosphatases and proteases in HeLa cell lysate. The conditions noted are these: cytoplasmic extracts from HeLa cells, prolonged incubation, MALDI-TOF. The class given is in vitro ADME. The procedure: FIG. 4 depicts the stability of peptide 17 against cellular phosphatases and proteases. Peptide 17 was incubated for 3 hours in HeLa cell lysate in the absence of phosphatase and protease inhibitors. The mixture was then analyzed by capillary electrophoresis (short dashed line). As controls, the untreated peptide 17 (solid line) and its nonphosphorylated derivative (dotted line) were used. The temperature of the capillary thermostating system was kept at 16° C. Separation buffer was 50 mM sodium phosphate, pH 7.0. Signals were detected at 220 nm.
Peptide 17 was incubated with HeLa cell lysate for 3 h and analyzed with capillary electrophoresis using UV detection at 220 nm on a P/ACE MDQ (Beckman Coulter, Palo Alto, Calif.) system. Fused-silica capillaries (Polymicro Technologies) of 40 cm length at an operation voltage of 20 kV were used. As references, untreated peptide 17 and its nonphosphorylated derivative were used. The samples were hydrodynamically injected with 3.45 kPa for 10 s. 50 mM sodium phosphate buffer (pH 7.0) was used as separation buffer. The system temperature was kept at 16° C.
The stability of peptides 15 and 17 in cytoplasmic extracts from HeLa cells was investigated using MALDI-TOF mass spectrometry and capillary electrophoresis, respectively. In the cytosolic incubation mixture, streptavidin sepharose beads served to isolate peptide 15 fragments after prolonged incubation. […] Therefore, phosphopeptides are useless for evaluating Pin1 functions in vivo unless dephosphorylation can be avoided.

Data set [2] deals with T1, GST-hPin1 variant Ser16Glu (Homo sapiens, UniProt Q13526, S16E).
T1 construct: made in house
The data set can be described thus: Far western blot related analysis, GST-hPin1 variants. The class given is binding. Here is the method:
FIGS. 2A-B depict western blot experiments analyzing the binding of peptide 15 to Pin1. FIG. 2A depicts the binding preferences of the PPIase and WW domain of hPin1 regarding peptide 15. In far western blot related experiments, increasing amounts (from left to right: 1, 5, 10, 52.5, 105 pmol) of GST, GST-hPin1 or its single GST-hPin1 PPIase and GST-hPin1 WW domain were spotted onto nitrocellulose membranes followed by a blocking procedure. The membranes were then incubated with a 1 μM solution of peptide 15 or 50 μM solution of its nonphosphorylated derivative (control). Signals were detected after incubation of the nitrocellulose membranes with horseradish peroxidase-conjugated streptavidin followed by a chemiluminescent reaction using the SuperSignal® substrate. FIG. 2B depicts an analysis of the binding of peptide 15 towards different GST-hPin1 variants. The indicated amounts of peptide 15 were spotted onto nitrocellulose membranes followed by a blocking procedure and incubation with the respective GST-hPin1 variant. […] Residual PPIase activities of GST-hPin1 and its variants were determined according to Zhou et al., 2000 and/or Yaffe et al., 1997. The PPIase activity of the GST-hPin1 variant Ser16Glu was measured in the protease free PPIase assay. […]

For the next data set, the target named is T2, hPin1 (Homo sapiens, UniProt Q13526).
T2 construct: The protease free assay ensures reliable measurement of IC50 values for the full-length hPin1
The data set can be described thus: Protease free PPIase assay, hPin1. The class given is biochemical. The procedure: Protein concentrations were determined using the extinction coefficient ε280=21030 M^−1 cm^−1 for hPin1, ε280=6979 M^−1 cm^−1 for the hPin1 PPIase domain, ε280=21030 M^−1 cm^−1 for XlPin1, ε280=8250 M^−1 cm^−1 for hPar14 and ε280=8250 M^−1 cm^−1 for hCyp18. Extinction coefficients were calculated using the program ProtParam Tool at ExPASy (SIB, Switzerland). All measurements were done at 10° C. in 35 mM Hepes buffer (pH 7.8).
The determination of the kinetic constants of the cis/trans isomerization within the protease-free system was performed using fluorescence based measurements (Garcia-Echeverria et al., 1993, Zhang et al., 2002) on a Hitachi F-3010 fluorescence spectrophotometer with H-Abz-Ala-Glu-Pro-Phe-NH-Np (SEQ ID NO: 2) as substrate. The substrate stock solution was 12 mM in anhydrous trifluoroethanol/0.55 M LiCl. Measurements were initiated by addition of the substrate (final concentration 10 μM) to a pre-incubated (15 min) mixture of 8.8 nM hPin1 or 7.1 nM XlPin1 and respective inhibitory peptide of desired concentrations. The excitation wavelength was 320 nm (spectral bandwidth 3 nm) and emission was detected at 420 nm (spectral bandwidth 10 nm).
Data analysis was performed by single-exponential nonlinear regression using the SigmaPlot Scientific Graphing System Version 5.00 (Jandel Corp.). The apparent first order rate constant kobs was computed by nonlinear regression of the progress curve obtained for the respective measurement. The rate constant k0 was determined in the absence of Pin1. The first order rate constants kenz was calculated from the equation kenz=kobs−k0. IC50 and Ki values were determined by fitting the first order rate constants kenz against the concentration of the inhibitory peptide by nonlinear regression according to Schutkowski et al., 1995 or a model for tight binding inhibitors (Morrison, 1969).
The protease free assay ensures reliable measurement of IC50 values for the full-length hPin1.

The target in data set [3] is T3, GST-hPin1, GST-hPin1 PPIase and GST-hPin1 WW domain (Homo sapiens, UniProt Q13526).
T3 construct: made in house
Nature of the data set: Far western blot related analysis, hPin1 and its single domains. The class given is binding. The conditions noted are these: 1 μM peptide 15, 50 μM nonphosphorylated derivative. Here is the method:
FIGS. 2A-B depict western blot experiments analyzing the binding of peptide 15 to Pin1. FIG. 2A depicts the binding preferences of the PPIase and WW domain of hPin1 regarding peptide 15. In far western blot related experiments, increasing amounts (from left to right: 1, 5, 10, 52.5, 105 pmol) of GST, GST-hPin1 or its single GST-hPin1 PPIase and GST-hPin1 WW domain were spotted onto nitrocellulose membranes followed by a blocking procedure. The membranes were then incubated with a 1 μM solution of peptide 15 or 50 μM solution of its nonphosphorylated derivative (control). Signals were detected after incubation of the nitrocellulose membranes with horseradish peroxidase-conjugated streptavidin followed by a chemiluminescent reaction using the SuperSignal® substrate. FIG. 2B depicts an analysis of the binding of peptide 15 towards different GST-hPin1 variants. […] Residual PPIase activities of GST-hPin1 and its variants were determined according to Zhou et al., 2000 and/or Yaffe et al., 1997. The PPIase activity of the GST-hPin1 variant Ser16Glu was measured in the protease free PPIase assay.
GST-hPin1 variants, GST-hPin1 PPIase and GST-hPin1 WW domain were prepared as described previously (Ranganathan et al., 1997, Zhou et al., 2000). […] Specific bound peptide 15 was detected by a chemiluminescent reaction using the SuperSignal® substrate (Pierce).

As for `CC(=O)N[C@@H](CCCCNC(=O)CCCC[C@@H]1SC[C@@H]2NC(=O)N[C@@H]21)C(=O)N[C@@H](C)C(=O)N[C@@H](C)C(=O)N[C@@H](Cc1csc2ccccc12)C(=O)N[C@H](C(=O)N1CCCC[C@H]1C(=O)N[C@@H](Cc1ccc2ccccc2c1)C(=O)N[C@@H](CCC(N)=O)C(N)=O)[C@@H](C)OP(=O)(O)O` [Peptide 15, Ac-Lys(N^ε-biotinoyl)-Ala-Ala-Bth-Thr(PO3H2)Pip-Nal-Gln-NH2] (Ac-K(Biotin)AA[Bta][pT][Pip][2Nal]Q-NH2), in data set [1], the “phosphothreonine residue in cytosol” value is listed as “completely dephosphorylated” and the “sequence integrity in cytosol” value is on record as “sequence integrity was maintained”. In data set [2], the “effect of Ser16Glu substitution in hPin1 on affinity” value is listed as “virtually no effect”. In addition, the IC50 (as a rule, the midpoint of a concentration-inhibition curve) at hPin1 (blockade of PPIase activity of full-length hPin1, protease free assay, 10° C., read-out: IC50) came to 210 nM. On hPin1 (protease free assay, full-length hPin1, read-out: lowest IC50 value), the IC50 was roughly 200 nM. Further, the “binding to GST-hPin1 and its PPIase and WW domains” value in data set [3] is given as “binds only to the PPIase domain”.
